Test system: Staphylococcus aureus
Experiment: Antibacterial activity against methicillin-resistant Staphylococcus aureus COL infected New Zealand white rabbit endocarditis model assessed as reduction in mean aortic vegetation titer at 30 mg/kg, iv twice daily after 4 days
Format: functional, Aorta

CN[C@H](CC(C)C)C(=O)N[C@H]1C(=O)N[C@@H](CC(N)=O)C(=O)N[C@H]2C(=O)N[C@H]3C(=O)N[C@H](C(=O)N[C@H](C(=O)O)c4cc(O)cc(O)c4-c4cc3ccc4O)[C@H](O)c3ccc(c(Cl)c3)Oc3cc2cc(c3O[C@@H]2O[C@H](CO)[C@@H](O)[C@H](O)[C@H]2O[C@H]2C[C@](C)(N)[C@H](O)[C@H](C)O2)Oc2ccc(cc2Cl)[C@H]1O [VANCOMYCIN]
log10CFU/g: 3.4

Source: ChEMBL document CHEMBL1154419, “Pharmacodynamic effects of telavancin against methicillin-resistant and methicillin-susceptible Staphylococcus aureus strains in the presence of human albumin or serum and in an in vitro kinetic model” (Antimicrob Agents Chemother, 2007)
